Among the data in PubChem BioAssay (NCI) are GI50 and TGI values, retold here.

What all share (test): inhibition of tumour cell growth, NCI panel, 48 h
In assay [1] the test system is CAKI-1 renal.
Assay [2] concerns DU-145 prostate.
Assay [3] deals with IGROV1 ovarian.
Assay [4] relates to NCI-H226 lung.
The subject of assay [5] is NCI-H460 lung.
Assay [6] deals with OVCAR-8 ovarian.
Assay [7] has as its system SF-268 CNS.
In assay [8] the test system is SK-MEL-5 melanoma.
Assay [9] has as its system U251 CNS.
Assay [10] relates to UACC-257 melanoma.

Structures are written as SMILES. Values joined by “and” are separate entries in the source; they are usually repeats but may differ in a detail not shown here. Equal values may be shown once.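 Protocol summary: plate cells (96-well), add compound at 5 concentrations, incubate 48 h, interpolate endpoints linearly. Abbreviation: GI50, concentration required for 50% inhibition of growth. The concentration for full growth arrest is given as TGI.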

With `Cn1cc(C2=C(c3cc[nH]c3)C(=O)NC2=O)c2ccccc21`, the GI50 in assay [1] is over 25 µM; in assay [2] it was over 25 µM; in assay [3] it was over 25 µM; in [4] it was 15.5 µM; in assay [5], over 25 µM; in [6] it was over 25 µM. For the same molecule, the GI50 in assay [7], in assay [8], in assay [9] and in [10] was over 25 µM each time. Also, the TGI in [1], in assay [2], in assay [3], in [4], in assay [5] and in [6] was over 25 µM in each case. Also, the TGI in [7], in assay [8], in assay [9] and in [10] was over 25 µM in each case.

For the molecule `COc1cccc(N2CCN(c3ncnc4cc[nH]c34)CC2)c1`, the GI50 is 5.75 µM in [1]; 43.2 µM in assay [2]; 32.2 µM in assay [3]; 1.59 µM in assay [4]; 7.19 µM in assay [5]; 3.46 µM in assay [6]. Besides, the GI50 in [7] is 14.9 µM; in [8], 0.394 µM; in assay [9], 12.7 µM; in assay [10] it was 2.32 µM. For the same molecule, the TGI is over 100 µM in [1]; over 100 µM in assay [2]; over 100 µM in assay [3]; 75.7 µM in [4]; over 100 µM in [5]; 56.1 µM in assay [6]. For the same molecule, the TGI was over 100 µM in [7], 2.77 µM in [8], over 100 µM in assay [9] and 29.2 µM in [10].

As to `C=C(C)C1CCC2=CC(CC3(C)OC3C3=CC(C(=O)OC)=C(C1)O3)OC2=O` (stereo unspecified), the TGI in assay [1], in [2], in assay [3], in assay [4], in assay [5] and in assay [6] was over 100 µM in each case. The TGI in [7], in assay [8], in [9] and in assay [10] was over 100 µM in each case.

With `COC(=O)c1c2c(c(C)[n+]([O-])c1C)C(=O)C(NCc1ccc(F)cc1)=CC2=O`, the GI50 in assay [1] was 2.06 µM; in [2] it was 2.11 µM; in [3], 1.15 µM; in assay [4] it was 2.16 µM; in [5], 0.792 µM; in [6], 1.59 µM. The GI50 in assay [7] is 2.51 µM; in assay [8], 0.3 µM; in assay [9], 1.81 µM; in assay [10], 0.845 µM. In addition, the TGI was 6 µM in [1]; 4.76 µM in assay [2]; 2.76 µM in assay [3]; 4.87 µM in assay [4]; 5.98 µM in [5]; 7.78 µM in [6]. The TGI in [7] came out at 9.08 µM; in [8], 1 µM; in assay [9] it was 5.14 µM; in assay [10], 2.44 µM.

In the case of `CC(=O)O[C@@H]1C2=C(C)C3(CC3)[C@@](C)(O)C(=O)C2=C[C@@]1(C)CO`, the GI50 is 1.5 µM in assay [1]; 0.342 µM in assay [2]; 0.598 µM in assay [3]; 2.12 µM in assay [4]; 0.296 µM in [5]; 0.427 µM in assay [6]. Further, the GI50 in assay [7] was 0.357 µM; in assay [8], 1.73 µM; in assay [9] it was 0.396 µM; in assay [10], 1.65 µM. Moreover, the TGI in [1] was 13.3 µM; in [2], 3.14 µM; in assay [3] it was 5.08 µM; in [4], 5.22 µM; in [5], 1.08 µM; in [6], over 100 µM. Besides, the TGI in [7] is 2.79 µM; in assay [8] it was 3.2 µM; in assay [9], over 36.1 µM; in assay [10], 5.38 µM.

In the case of `Oc1ccc(Cl)cc1Sc1cc(Cl)ccc1O`, the GI50 in assay [1] was 6.82 µM; in assay [2], 3.83 µM; in [3], 3.52 µM; in assay [4], 4.09 µM; in assay [5], 3.45 µM; in assay [6] it was 3.36 µM. In addition, the GI50 in [7] was 3.51 µM; in assay [8], 1.92 µM; in assay [9] it was 3.31 µM; in assay [10] it was 2.83 µM. Moreover, the TGI in assay [1] was 34.8 µM and 29.6 µM; in assay [2], 30.5 µM and 13.7 µM; in [3], 32.5 µM and 9.5 µM; in assay [4], 41.9 µM and 19.2 µM; in assay [5] it was 24.8 µM and 9.2 µM; in assay [6] it was 42.7 µM and 10.8 µM. Moreover, the TGI in [7] was 31.9 µM and 13.4 µM; in [8] it was 15.7 µM and 4.06 µM; in assay [9], 22.1 µM and 12.2 µM; in assay [10] it was 19.3 µM and 6.91 µM.

Take `NC(Cc1cccnn1)C(=O)O` (stereo unspecified): the TGI in [1], in assay [2], in assay [3], in assay [4], in assay [5] and in [6] was over 100 µM throughout. Also, the TGI in assay [7], in assay [8], in assay [9] and in [10] was over 100 µM in each case.

For `C#CCOc1cccc(Nc2ncnc3cc(NC(=O)C=C)ccc23)c1`, the GI50 in [1] is 6.08 µM; in assay [2] it was 3.55 µM; in assay [3], 10.7 µM; in assay [4], 29.7 µM; in [5] it was 10.4 µM; in assay [6], 7.72 µM. Further, the GI50 in assay [7] is 12.6 µM; in assay [8], 17.3 µM; in assay [9], 17.4 µM; in [10], 32.3 µM. Further, the TGI is over 100 µM in assay [1]; over 100 µM in assay [2]; over 100 µM in [3]; over 100 µM in assay [4]; over 100 µM in [5]; 57.8 µM in assay [6]. The TGI in [7], in [8], in [9] and in assay [10] was over 100 µM each time.

For `CC(C)(C)C(=O)c1c(C(F)(F)F)n([O-])c2cc(Cl)c(Cl)cc2[n+]1=O`, the GI50 in assay [1] was 0.248 µM; in [2], 0.353 µM; in assay [3] it was 0.077 µM; in [4], 1.6 µM; in [5], 0.279 µM; in assay [6], 0.502 µM. Also, the GI50 was 0.457 µM in [7], 0.277 µM in assay [8], 0.492 µM in assay [9] and 1.28 µM in assay [10]. Besides, the TGI was found to be 0.639 µM in assay [1]; 0.803 µM in assay [2]; 0.213 µM in assay [3]; 3.12 µM in assay [4]; 0.767 µM in [5]; 1.51 µM in assay [6]. For the same molecule, the TGI in [7] was determined as 0.902 µM; in [8], 1.1 µM; in [9] it was 0.951 µM; in assay [10] it was 2.86 µM.

Consider `C=C1C(=O)O[C@@H]2CC(CO)=C([C@@H](C)CCCO)[C@@H](OC(=O)/C(C)=C\C)[C@H]12`, for which the TGI is 63.4 µM in [1]; 27.7 µM in assay [2]; 35 µM in assay [3]; over 62.8 µM in [4]; 48.2 µM in [5]; over 76.8 µM in [6]. Moreover, the TGI in assay [7] is 50.2 µM; in assay [8], 34.6 µM; in [9] it was 37.6 µM; in [10], 38.1 µM.

For `Cc1c(Cl)cccc1NC(=O)c1sc2nc3c(cc2c1N)C(=O)CCC3`, the GI50 was 0.0461 µM in assay [1]; 0.124 µM in [2]; 0.153 µM in [3]; 0.102 µM in [4]; 0.0407 µM in assay [5]; 0.272 µM in [6]. For the same molecule, the GI50 in assay [7] is 0.206 µM; in [8] it was 0.13 µM; in assay [9], 0.0836 µM. The TGI in [1] is over 100 µM; in assay [2], 47.3 µM; in assay [3], over 100 µM; in [4] it was over 37.1 µM; in [5], over 100 µM; in [6] it was over 55.6 µM. Moreover, the figures for the TGI in assay [7], in assay [8] and in [9] were over 100 µM, 2.78 µM and over 37.4 µM, respectively.

Take `O=C(N=Nc1c(Cl)c(O)c2ccccc2c1O)C(=O)Nc1cccc(C(F)(F)F)c1`: the GI50 is 8.66 µM in assay [1]; 2.73 µM in [2]; 2.99 µM in [3]; 6.78 µM in [4]; 3.3 µM in [5]; 3.39 µM in assay [6]. Moreover, the GI50 is 3.37 µM in assay [7], 1.7 µM in assay [8] and 3.05 µM in assay [9]. Moreover, the TGI was 23.7 µM in [1]; 5.15 µM in [2]; 21.4 µM in assay [3]; 28.2 µM in assay [4]; 12.4 µM in assay [5]; 13.6 µM in assay [6]. Further, the results for the TGI in [7], in assay [8] and in assay [9] were 13 µM, 3.98 µM and 10.9 µM, respectively.
